For one experiment, the system named is rumen metabolism. The settings on record: known prior art, administered to ruminant animals; cited from earlier work.
For experiment [1], the system named is methane production from ruminal fluid. The experiment in a line: in vitro assay of inhibition of methane production from ruminal fluid. The settings on record: in vitro, diluted rumen fluid with dried ground hay, pH 6.9-7.0, 39° C., 15-16 hours; read-out: ED50, concentration of the test compound required to produce a 50% reduction in methane production. It counts as cell-based, steers (pooled rumen fluid). How it is done:
Rumen fluid is collected on a regular routine basis from two steers, which are fed on the same hay-plus-concentrate diet. Sampling time is standardised as far as possible, and the fluid from the two animals is pooled on a 50/50 basis. Large particulate matter is removed by filtering the pooled fluid through four layers of muslin cloth. The filtrate is then diluted in the ratio of one volume of filtrate to three volumes of an artificial rumen fluid (prepared as described by G. L. Bales et al., Journal of Dairy Science, 1976, volume 59, page 1850, but omitting acetic acid), and the pH of the mixture is adjusted to 6.9-7.0 with saturated aqueous sodium carbonate solution. Aliquots (50 ml.) of this mixture are dispensed into 100 ml. conical flasks containing dried ground hay (0.5 g.), and each flask is used to test a test compound at a particular concentration.
The test compound is added to the conical flask as a solution in ethanol, the flask is flushed with carbon dioxide gas, stoppered with a suba-seal, and incubated at 39° C. for 15-16 hours. After one hour, a narrow bore needle is inserted through the suba-seal to relieve the gas pressure, and the needle is withdrawn 30 minutes before the incubation is ended. Fermentation is then stopped by placing the flask in ice, and after 15 minutes cooling, the gas over the liquid is analysed for methane by gas chromatography, and the concentration of the test compound required to produce a 50% reduction in methane production (ED50 in μg./ml.) is calculated.
The test of methane inhibition described in Example 12 was repeated for various other compounds, to give the results shown below. The results are expressed as the percentage inhibition of methane production caused by 1 μg./ml. of a test compound, except for those compounds indicated by *, for which 3 μg./ml. was used.

≈ marks a conversion by molar mass, not a printed value.

The source of these data is patent US4268510A, “1,3-Benzoxazine trichloromethyl derivatives, compositions and use” (Imperial Chemical Industries Limited, priority 1978, dated 1981).

Consider `O=CC(Cl)(Cl)Cl` [chloral], for which the “effect on rumen metabolism (reducing methane production)” value with rumen metabolism is “beneficial effect on rumen metabolism”.

`NC(=O)C(Cl)(Cl)Cl` [trichloroacetamide]: in the experiment with rumen metabolism, the “effect on rumen metabolism (reducing methane production)” value is on record as “beneficial effect on rumen metabolism”.

On to `N#Cc1ccc2c(c1)COC(C(Cl)(Cl)Cl)N2` (centres unmarked) [drawing 7; R3=CN, 1,2-dihydro-2-trichloromethyl-4H-benzo[d]-[1,3]-oxazine-6-carbonitrile], for which, in experiment [1], the IC50 worked out at 0.3 µg/mL (≈ 1.08 µM).

`O=C1NC(C(Cl)(Cl)Cl)Nc2ccccc21` (centres unmarked) [drawing 5; R3=H; R5=H; R6=H, 1,2-dihydro-2-trichloromethylquinazolin-4-one]: the IC50 in experiment [1] stood at 0.3 µg/mL (≈ 1.13 µM).

As for `CC(=O)N1C(=O)c2ccccc2OC1C(Cl)(Cl)Cl` (centres unmarked) [drawing 6; R3=H; R5=CH3 CO, 3-acetyl-3,4-dihydro-2-trichloromethyl-2H-benzo[e]-[1,3]-oxazin-4-one], the IC50 in experiment [1] was found to be 1 µg/mL (≈ 3.24 µM).
